Results taken from article PMC5750218, “Protein-inspired antibiotics active against vancomycin- and daptomycin-resistant bacteria” (Nature Communications, 2018).
In brackets after ≈: the same amount, converted by molar mass.

Experiments:
[1] = tested on: Methicillin-resistant S. aureus ATCC 43300; assay: microbe, parasite or virus in culture; details: ATCC 43300, 24 h
Experimental: (§1) Antimicrobial activity of compounds was tested against a number of bacterial strains by broth microdilution (BMD) assay with MIC determination, including S. aureus (MSSA ATCC® 29213™, MRSA ATCC® 43300™, VISA NARSA NRS1, VISA NARSA NRS4), Streptococcus pneumoniae (MDR ATCC® 700677™) and Enterococcus faecium (MDR VanA ATCC® 51559™). ATCC strains were sourced from the American Type Culture Collection and NRS strains from NARSA (Network on Antimicrobial Resistance in S. aureus) via BEI Resources (www.beiresources.org). All compounds were prepared to 160 µg mL^−1 solution in water from a stock solution of 1 mM concentration.
[…] […] Standards ranged from 64 to 0.03 µg mL^−1 and compounds from 8 to 0.003 µg mL^−1 with final assay volumes of 100 µL per well. Gram-positive bacteria were cultured in Mueller Hinton broth (MHB) (Bactolaboratories, Cat. no. 211443) at 37 °C overnight. A sample of each culture was then diluted 40-fold in fresh MHB and incubated at 37 °C for 2–3 h. […] All the plates were covered and incubated at 37 °C for 24 h. MICs were the lowest concentration showing no visible growth.

Cytotoxicity MTT assay [2] = assay type: cell-based, human; details: human
Experimental: Compound cytotoxicity was evaluated against HepG2 (ATCC-®HB-8065 liver hepatoceullular carcinoma) and HEK293 (ATCC®CRL-1573, embryonic kidney) human cell lines using standard (3-(4,5-dimethylthiazol-2-yl)−2,5-diphenyltetrazolium bromide (MTT) assay protocol with slight changes. In brief, HepG2 and HEK293 cells (assessed annually for mycoplasma contamination) were seeded as 1.5 × 10^4 cells per well in a clear 96-well tissue culture treated plate in a final volume of 100 μL in Dulbecco’s Modified Eagle Medium (DMEM)(GIBCO-Invitrogen #11995-073), in which 1% of FBS was added. Cells were incubated for 24 h at 37 °C, 5% CO2 to allow cells to attach to the plates. […] After the incubation, 0.4 mg mL^−1 MTT (3-(4,5-dimethylthiazol-2-yl)−2,5-diphenyltetrazolium bromide) (Invitrogen) was added to each well. The plates were then incubated for 2 h at 37 °C, 5% CO2. The media was removed, and purple formazan crystals were resuspended in 60 μL of DMSO. The absorbance was read at 570 nm using a Polarstar Omega plate reader. The data was then analysed by Prism software. Results are presented as the average percentage of control ± S.D. for each set of duplicate wells using the following equation: percent viability = (ABSTEST – ABSPOSITIVE CTRL / ABSUNTREATED –ABS POSITIVE CTRL)×100.

[3] = tested on: Vancomycin-resistant (VanA) Enterococcus faecium ATCC 51559; assay: microbe, parasite or virus in culture; details: ATCC 51559
Experimental: as §1
(§2) The compounds, along with standard antibiotics were serially diluted twofold across the wells of 96-well non-binding surface (NBS) polystyrene plates (Corning 3641). […] Standards ranged from 64 to 0.03 µg mL^−1 and compounds from 8 to 0.003 µg mL^−1 with final assay volumes of 100 µL per well. Gram-positive bacteria were cultured in Mueller Hinton broth (MHB) (Bactolaboratories, Cat. no. 211443) at 37 °C overnight. A sample of each culture was then diluted 40-fold in fresh MHB and incubated at 37 °C for 2–3 h. […] All the plates were covered and incubated at 37 °C for 24 h. MICs were the lowest concentration showing no visible growth.

[4] = tested on: Vancomycin-intermediate S. aureus NRS1; assay: microbe, parasite or virus in culture; details: Vancomycin-intermediate NRS1
Experimental: as §1, §2

[5] = tested on: Multi-drug-resistant S. pneumoniae ATCC 700677; assay: microbe, parasite or virus in culture; details: ATCC 700677
Experimental: as §1, §2

Cytotoxicity MTT assay [6] = assay type: cell-based, human; details: human; remark: listed apart in the source
Experimental: Compound cytotoxicity was evaluated against HepG2 (ATCC-®HB-8065 liver hepatoceullular carcinoma) and HEK293 (ATCC®CRL-1573, embryonic kidney) human cell lines using standard (3-(4,5-dimethylthiazol-2-yl)−2,5-diphenyltetrazolium bromide (MTT) assay protocol with slight changes. In brief, HepG2 and HEK293 cells (assessed annually for mycoplasma contamination) were seeded as 1.5 × 10^4 cells per well in a clear 96-well tissue culture treated plate in a final volume of 100 μL in Dulbecco’s Modified Eagle Medium (DMEM)(GIBCO-Invitrogen #11995-073), in which 1% of FBS was added. Cells were incubated for 24 h at 37 °C, 5% CO2 to allow cells to attach to the plates. Compounds prepared at 100 µM to 0.046 µM in threefold dilutions were added into each well and incubated for 24 h at 37 °C, 5% CO2. After the incubation, 0.4 mg mL^−1 MTT (3-(4,5-dimethylthiazol-2-yl)−2,5-diphenyltetrazolium bromide) (Invitrogen) was added to each well. The plates were then incubated for 2 h at 37 °C, 5% CO2. The media was removed, and purple formazan crystals were resuspended in 60 μL of DMSO. The absorbance was read at 570 nm using a Polarstar Omega plate reader. The data was then analysed by Prism software. Results are presented as the average percentage of control ± S.D. for each set of duplicate wells using the following equation: percent viability = (ABSTEST – ABSPOSITIVE CTRL / ABSUNTREATED –ABS POSITIVE CTRL)×100.

CCCCCCCCCC(=O)NCC(=O)N[C@@H](CO)C(=O)N[C@@H](CO)C(=O)N[C@@H](CCCCN)C(=O)N[C@@H](CO)C(=O)N1CCC[C@H]1C(=O)N[C@@H](CO)C(=O)N[C@@H](CCCCN)C(=O)N[C@@H](CCCCN)C(=O)N[C@@H](CCCCN)C(=O)N[C@@H](CCCCN)C(=O)N[C@@H](CCCCN)C(=O)N[C@@H](CCCCN)C(=O)N1CCC[C@H]1C(=O)NCC(=O)N[C@@H](CC(=O)O)C(=O)N[C@@H](CSSCCNC(=O)[C@H]1NC(=O)[C@H]2NC(=O)[C@H](NC(=O)[C@@H]3NC(=O)[C@H](CC(N)=O)NC(=O)[C@H](NC(=O)[C@@H](CC(C)C)NC)[C@H](O)c4ccc(c(Cl)c4)Oc4cc3cc(c4O[C@@H]3O[C@H](CO)[C@@H](O)[C@H](O)[C@H]3O[C@H]3C[C@](C)(N)[C@H](O)[C@H](C)O3)Oc3ccc(cc3Cl)[C@H]2O)c2ccc(O)c(c2)-c2c(O)cc(O)cc21)C(N)=O [Compound 6]
MIC MRSA [1]: 2.5 µg/mL (≈ 0.725 µM)
CC50 at 24 h (Cytotoxicity MTT assay [2]): > 100 µM
MIC VRE [3]: 1.25 µg/mL (≈ 0.362 µM)
MIC VISA [4]: >8 µg/mL
MIC MDR S.P. [5]: 3 µg/mL (≈ 0.87 µM)
CC50 at 24 h (Cytotoxicity MTT assay [6]): > 100 µM

CCCCCCCCCCCC(=O)NCC(=O)N[C@@H](CO)C(=O)N[C@@H](CO)C(=O)N[C@@H](CCCCN)C(=O)N[C@@H](CO)C(=O)N1CCC[C@H]1C(=O)N[C@@H](CO)C(=O)N[C@@H](CCCCN)C(=O)N[C@@H](CCCCN)C(=O)N[C@@H](CCCCN)C(=O)N[C@@H](CCCCN)C(=O)N[C@@H](CCCCN)C(=O)N[C@@H](CCCCN)C(=O)N1CCC[C@H]1C(=O)NCC(=O)N[C@@H](CC(=O)O)C(=O)N[C@@H](CSSCCNC(=O)[C@H]1NC(=O)[C@H]2NC(=O)[C@H](NC(=O)[C@@H]3NC(=O)[C@H](CC(N)=O)NC(=O)[C@H](NC(=O)[C@@H](CC(C)C)NC)[C@H](O)c4ccc(c(Cl)c4)Oc4cc3cc(c4O[C@@H]3O[C@H](CO)[C@@H](O)[C@H](O)[C@H]3O[C@H]3C[C@](C)(N)[C@H](O)[C@H](C)O3)Oc3ccc(cc3Cl)[C@H]2O)c2ccc(O)c(c2)-c2c(O)cc(O)cc21)C(N)=O [Compound 7]
MIC MRSA [1]: 0.09 µg/mL (≈ 0.0259 µM)
CC50 at 24 h (Cytotoxicity MTT assay [2]): 65 µM
MIC VRE [3]: 0.02 µg/mL (≈ 0.00575 µM)
MIC VISA [4]: 1 µg/mL (≈ 0.288 µM)
MIC MDR S.P. [5]: 0.06 µg/mL (≈ 0.0173 µM)
CC50 at 24 h (Cytotoxicity MTT assay [6]): 89 µM

CCCCCCCCCCCCCCCC(=O)NCC(=O)N[C@@H](CO)C(=O)N[C@@H](CO)C(=O)N[C@@H](CCCCN)C(=O)N[C@@H](CO)C(=O)N1CCC[C@H]1C(=O)N[C@@H](CO)C(=O)N[C@@H](CCCCN)C(=O)N[C@@H](CCCCN)C(=O)N[C@@H](CCCCN)C(=O)N[C@@H](CCCCN)C(=O)N[C@@H](CCCCN)C(=O)N[C@@H](CCCCN)C(=O)N1CCC[C@H]1C(=O)NCC(=O)N[C@@H](CC(=O)O)C(=O)N[C@@H](CSSCCNC(=O)[C@H]1NC(=O)[C@H]2NC(=O)[C@H](NC(=O)[C@@H]3NC(=O)[C@H](CC(N)=O)NC(=O)[C@H](NC(=O)[C@@H](CC(C)C)NC)[C@H](O)c4ccc(c(Cl)c4)Oc4cc3cc(c4O[C@@H]3O[C@H](CO)[C@@H](O)[C@H](O)[C@H]3O[C@H]3C[C@](C)(N)[C@H](O)[C@H](C)O3)Oc3ccc(cc3Cl)[C@H]2O)c2ccc(O)c(c2)-c2c(O)cc(O)cc21)C(N)=O [Compound 9]
MIC MRSA [1]: 0.06 µg/mL (≈ 0.017 µM)
CC50 at 24 h (Cytotoxicity MTT assay [2]): 4 µM
MIC VRE [3]: 8 µg/mL (≈ 2.26 µM)
MIC VISA [4]: 2 µg/mL (≈ 0.566 µM)
MIC MDR S.P. [5]: 0.125 µg/mL (≈ 0.0354 µM)
CC50 at 24 h (Cytotoxicity MTT assay [6]): 7 µM
